From US20080249077A1, “17.Beta.-Fluoromethoxycarbonyl-Androst-4-En-3-One Compounds With a 17.Alpha.-Carbonate Sustituent” (priority 2005, published 2008)

Key:
Type in all cases: cell-based
glucocorticoid receptor [1] = biological target: T1, glucocorticoid receptor (Homo sapiens, UniProt P04150); test: Assay for transactivation activity of the glucocorticoid agonists (MMTV-LTR renilla luciferase reporter in A549 cells); details: compound 6 hour at 37° C., read-out: maximal response relative to Dexamethasone (100%) (transactivation)
T1 construct: A549 cells stably transfected with a reporter gene; endogenous in cells; host or cells: A549 cells
T1 sequence (P04150 1-777): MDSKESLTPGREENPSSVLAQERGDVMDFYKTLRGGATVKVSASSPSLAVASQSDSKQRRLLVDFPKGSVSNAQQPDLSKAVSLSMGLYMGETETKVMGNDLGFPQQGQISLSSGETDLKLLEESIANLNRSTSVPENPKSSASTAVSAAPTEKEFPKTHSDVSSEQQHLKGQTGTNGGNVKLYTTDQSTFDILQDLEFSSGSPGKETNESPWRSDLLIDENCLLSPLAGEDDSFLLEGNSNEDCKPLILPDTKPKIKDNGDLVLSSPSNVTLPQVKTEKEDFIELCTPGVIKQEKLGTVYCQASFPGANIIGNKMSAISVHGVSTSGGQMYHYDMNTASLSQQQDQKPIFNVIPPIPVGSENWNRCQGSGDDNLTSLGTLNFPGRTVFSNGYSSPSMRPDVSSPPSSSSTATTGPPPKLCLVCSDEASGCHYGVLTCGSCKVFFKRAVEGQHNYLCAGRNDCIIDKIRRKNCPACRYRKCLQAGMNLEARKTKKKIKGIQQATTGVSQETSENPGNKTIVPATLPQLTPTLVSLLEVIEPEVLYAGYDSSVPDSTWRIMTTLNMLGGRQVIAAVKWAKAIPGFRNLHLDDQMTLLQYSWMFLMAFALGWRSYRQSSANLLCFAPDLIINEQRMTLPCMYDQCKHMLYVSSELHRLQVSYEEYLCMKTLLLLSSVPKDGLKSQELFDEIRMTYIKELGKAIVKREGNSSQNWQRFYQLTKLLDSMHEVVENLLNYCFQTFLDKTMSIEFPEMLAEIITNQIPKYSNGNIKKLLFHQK
Protocol: Assay for Transactivation Activity of the Glucocorticoid Agonists
The functional assay based on that described by R. J. H. Austin et al., Eur Resp J. (2002), 20, 1386-1392 measures the ability of compounds to directly transactivate gene expression. A549 cells stably transfected with a reporter gene containing the glucocorticoid responsive region of the mouse mammary tumour virus long terminal repeat (MMTV-LTR) coupled to renilla luciferase were treated with test compounds at appropriate doses for 6 hour at 37° C. The amount of luciferase activity present within the cells is then determined by measuring the light emitted following incubation with a suitable substrate. Dose response curves were constructed from which EC50 values were estimated and from which maximal responses are calculated relative to Dexamethasone (100%).

Progesterone Receptor = biological target: T2, Progesterone Receptor (Homo sapiens, UniProt P06401); test: Assay for progesterone receptor activity (CV-1 cells transduced with PRb-BacMam and MMTV-BacMam, Steady Glo); details: 24 h, read-out: pEC50 (progesterone receptor) (converted)
T2 construct: expressed in transfected cells; host or cells: CV-1 cells transduced with PRb-BacMam
T2 sequence (P06401 1-933): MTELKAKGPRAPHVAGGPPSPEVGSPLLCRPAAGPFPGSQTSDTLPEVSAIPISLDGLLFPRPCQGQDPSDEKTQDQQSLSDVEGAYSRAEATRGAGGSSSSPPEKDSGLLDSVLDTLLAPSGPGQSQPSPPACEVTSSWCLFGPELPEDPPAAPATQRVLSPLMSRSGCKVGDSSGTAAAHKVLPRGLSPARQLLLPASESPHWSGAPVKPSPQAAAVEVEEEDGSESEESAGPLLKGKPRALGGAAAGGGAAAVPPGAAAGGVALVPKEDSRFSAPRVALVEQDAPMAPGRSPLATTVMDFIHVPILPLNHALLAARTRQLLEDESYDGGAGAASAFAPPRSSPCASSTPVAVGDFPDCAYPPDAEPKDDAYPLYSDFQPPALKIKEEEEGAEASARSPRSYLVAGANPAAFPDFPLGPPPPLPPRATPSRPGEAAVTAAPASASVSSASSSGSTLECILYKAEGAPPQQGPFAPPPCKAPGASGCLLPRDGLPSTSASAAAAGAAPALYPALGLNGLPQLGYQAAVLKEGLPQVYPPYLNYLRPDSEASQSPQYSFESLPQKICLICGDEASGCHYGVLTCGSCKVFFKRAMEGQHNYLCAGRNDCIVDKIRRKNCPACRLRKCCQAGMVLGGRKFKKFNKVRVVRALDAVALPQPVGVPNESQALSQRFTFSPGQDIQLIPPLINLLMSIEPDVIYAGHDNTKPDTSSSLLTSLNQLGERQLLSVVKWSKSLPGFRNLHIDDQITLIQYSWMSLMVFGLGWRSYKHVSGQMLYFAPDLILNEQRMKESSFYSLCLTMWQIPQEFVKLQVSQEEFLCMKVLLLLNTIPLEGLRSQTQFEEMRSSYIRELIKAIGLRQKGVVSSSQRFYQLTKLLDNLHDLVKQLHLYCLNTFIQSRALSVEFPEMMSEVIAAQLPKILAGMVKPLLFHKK
Protocol: Assay for Progesterone Receptor Activity
Cells were diluted in DMEM containing 10% Hyclone, 2 mM […] and 1% Pen/Strep at 140 cells/μl and transduced with 10% PRb-BacMam and 10% MMTV-BacMam. […] of suspension cells were dispensed to each well of white Nunc 384-well plates, containing compounds at the required concentration. After 24 h 10 μl of Steady Glo were added to each well of the plates. Plates were incubated in the dark for 10 min before reading them on a Viewlux reader. Dose response curves were constructed from which pEC50 values were estimated.

glucocorticoid receptor [2] = biological target: T1, glucocorticoid receptor; test: Assay for transrepression activity of the glucocorticoid agonists (NF-κB responsive ELAM promoter-sPAP reporter, TNF-stimulated A549 cells); details: compound 1 hour at 37° C., then TNF 10 ng/ml for 16 hours, read-out: pIC50 (transrepression) (converted)
Protocol: Assay for Transrepression Activity of the Glucocorticoid Agonists
A549 cells stably transfected with a reporter gene containing the NF-κB responsive elements from the ELAM gene promoter coupled to sPAP (secreted alkaline phosphatase) are treated with test compounds at appropriate doses for 1 hour at 37° C. The cells are then stimulated with tumour necrosis factor (TNF, 10 ng/ml) for 16 hours, at which time the amount of alkaline phosphatase produced is measured by a standard colourimetric assay. Dose response curves were constructed from which EC50 values were estimated.

## CCC(OC(=O)O[C@]1(C(=O)OCF)[C@H](C)C[C@H]2[C@@H]3C[C@H](F)C4=CC(=O)C=C[C@]4(C)[C@@]3(F)[C@@H](O)C[C@@]21C)C(C)(C)C (stereo partly drawn) [Example 38, Fluoromethyl(6α,11β,16α,17α)-17-({[(1-ethyl-2,2-dimethylpropyl)oxy]carbonyl}oxy)-6,9-difluoro-11-hydroxy-16-methyl-3-oxoandrosta-1,4-diene-17-carboxylate]
Glucocorticoid receptor [1]
  Emax: < 25%
Progesterone Receptor
  EC50: > 10 nM

## C[C@@H]1C[C@H]2[C@@H]3C[C@H](F)C4=CC(=O)C=C[C@]4(C)[C@@]3(F)[C@@H](O)C[C@]2(C)[C@@]1(OC(=O)O[C@@H]1[C@@H]2CC[C@@H](C2)C1(C)C)C(=O)OCF [Example 30, Fluoromethyl(6α,11β,16α,17α)-17-[({[(1R,2R,4S)-3,3-dimethylbicyclo[2.2.1]hept-2-yl]oxy}carbonyl)oxy]-6,9-difluoro-11-hydroxy-16-methyl-3-oxoandrosta-1,4-diene-17-carboxylate]
Glucocorticoid receptor [2]
  IC50: < 0.1 nM
Glucocorticoid receptor [1]
  Emax: < 25%
Progesterone Receptor
  EC50: > 10 nM

## C[C@@H]1C[C@H]2[C@@H]3C[C@H](F)C4=CC(=O)C=C[C@]4(C)[C@@]3(F)[C@@H](O)C[C@]2(C)[C@@]1(OC(=O)OC1CCCCCC1)C(=O)OCF [Example 14, Fluoromethyl(6α,11β,16α,17α)-17-{[(cycloheptyloxy)carbonyl]oxy}-6,9-difluoro-11-hydroxy-16-methyl-3-oxoandrosta-1,4-diene-17-carboxylate]
Glucocorticoid receptor [1]
  Emax: < 25%
Progesterone Receptor
  EC50: > 10 nM

## C[C@@H]1[C@H]2C[C@@H](C[C@H]1OC(=O)O[C@]1(C(=O)OCF)[C@H](C)C[C@H]3[C@@H]4C[C@H](F)C5=CC(=O)C=C[C@]5(C)[C@@]4(F)[C@@H](O)C[C@@]31C)C2(C)C [Example 34, Fluoromethyl(6α,11β,16α,17α)-6,9-difluoro-11-hydroxy-16-methyl-3-oxo-17-[({[(1R,2R,3R,5S)-2,6,6-trimethylbicyclo[3.1.1]hept-3-yl]oxy}carbonyl)oxy]androsta-1,4-diene-17-carboxylate]
Glucocorticoid receptor [1]
  Emax: < 25%
Progesterone Receptor
  EC50: > 10 nM

## CCC(OC(=O)O[C@]1(C(=O)OCF)[C@H](C)C[C@H]2[C@@H]3C[C@H](F)C4=CC(=O)C=C[C@]4(C)[C@@]3(F)[C@@H](O)C[C@@]21C)C(C)C (stereo partly drawn) [Example 8, Fluoromethyl(6α,11β,16α,17α)-17-({[(1-ethyl-2-methylpropyl)oxy]carbonyl}oxy)-6,9-difluoro-11-hydroxy-16-methyl-3-oxoandrosta-1,4-diene-17-carboxylate]
Glucocorticoid receptor [2]
  IC50: < 0.1 nM
Glucocorticoid receptor [1]
  Emax: < 25%
Progesterone Receptor
  EC50: > 10 nM

## CCC(C)(C)OC(=O)O[C@]1(C(=O)OCF)[C@H](C)C[C@H]2[C@@H]3C[C@H](F)C4=CC(=O)C=C[C@]4(C)[C@@]3(F)[C@@H](O)C[C@@]21C [Example 2, Fluoromethyl(6α,11β,16α,17α)-17-({[(1,1-dimethylpropyl)oxy]carbonyl}oxy)-6,9-difluoro-11-hydroxy-16-methyl-3-oxoandrosta-1,4-diene-17-carboxylate]
Glucocorticoid receptor [2]
  IC50: < 0.1 nM
Progesterone Receptor
  EC50: > 10 nM

## CC(C)[C@H]1CC[C@H](C)C[C@@H]1OC(=O)O[C@]1(C(=O)OCF)[C@H](C)C[C@H]2[C@@H]3C[C@H](F)C4=CC(=O)C=C[C@]4(C)[C@@]3(F)[C@@H](O)C[C@@]21C [Example 32, Fluoromethyl(6α,11β,16α,17α)-6,9-difluoro-11-hydroxy-16-methyl-17-[({[(1 S,2R,5S)-5-methyl-2-(1-methylethyl)cyclohexyl]oxy}carbonyl)oxy]-3-oxoandrosta-1,4-diene-17-carboxylate]
Glucocorticoid receptor [1]
  Emax: < 25%
Progesterone Receptor
  EC50: > 10 nM
